This is an account of results in patent US20040219201A1, “Tempamine compositions and methods of use” (priority 2001, published 2004).

Broadly, the IC50 is the concentration that inhibits the measured activity by half.

The test system of data set [1] is MCF-7 (human breast adenocarcinoma). Description: Cytotoxicity assay (methylene blue); nitroxides alone or doxorubicin plus tempamine. Format: cell-based. As to conditions: for IC50: Homo sapiens. Here is the method:
(§1) As described in Example 1, the cytotoxicity of tempamine was determined on three cell lines, MCF-7 (human breast adenocarcinoma), M-109S (doxorubicin-sensitive human breast carcinoma), and M-109R (doxorubicin-resistant human breast carcinoma). The effect of free tempamine on cell proliferation was determined by a methylene blue assay as described in Example 1B.
FIG. 4 is a plot comparing the percent survival of MCF-7 human breast carcinoma cells at various doses of tempamine (closed circles) and tempol (open circles) in vitro. The cells were analyzed after 72 hours of exposure to the nitroxides. Tempamine and tempol cell growth inhibitory activities were of similar magnitude.
(§2) In yet another aspect, the invention contemplates administration of tempamine in combination with chemotherapeutic agent. […] Doxorubicin was chosen as a model chemotherpeutic agent. The enhancement of doxorubicin cytotoxicity by tempamine was tested on three cell lines, as described in Example 1A. A cytotoxicity assay as described in Example 1B was used. Two of the cell lines, MCF-7 and M-109S, were doxorubicin-sensitive lines and one cell line, M-109R, was doxorubicin resistant. MCF-7 cells are more sensitive to tempamine (100 μM caused 75% growth inhibition), but are less sensitive to doxorubicin, than are M-109S cells.
(§3) MCF-7 (human breast adenocarcinoma), M-109S (doxorubicin-sensitive human breast carcinoma), and M-109R (doxorubicin-resistant human breast carcinoma) were maintained in RPMI medium (Biological Industries, Beit HaEmek, Israel) supplemented with 10% fetal calf serum (FCS). The cell lines were maintained under standard culture conditions at 37° C. in a humidified 5% CO2 atmosphere.
(§4) The effect of tempamine on cell proliferation was determined by the methylene blue assay (Horowitz, A. T., et al., Biochim BiophysActa. 1109:203, (1992)). Briefly, cells were seeded onto 96-well plates (MCF cells at a density of 6×10^3 cells per well, and M-109S and M-109R at a density of 1.5×10^3 cells per well) and allowed to grow for 24 hours prior to treatment with different concentrations of tempamine. After the addition of tempamine (5×10^−5 to 4×10^−4), the cells were incubated in RPMI +10% FCS for four days without change of medium. Then the cells were fixed with 2.5% glutaraldehyde, stained with methylene blue and assayed spectrophotometrically.

Data set [2] deals with M-109S (doxorubicin-sensitive human breast carcinoma). The data set is described as follows: Cytotoxicity assay (methylene blue); tempamine alone or doxorubicin plus tempamine. Format: cell-based. Particulars: M-109S; for IC50: Homo sapiens. Here is the method:
as §1, §2, §3, §4

The conditions of data set [3]: Samuni et al. 1997; cited from earlier work.

Read-outs that look alike come from different tables or passages of the source.

For the compound `COc1cccc2c1C(=O)c1c(O)c3c(c(O)c1C2=O)C[C@@](O)(C(=O)CO)C[C@@H]3O[C@H]1C[C@H](N)[C@H](O)[C@H](C)O1` [doxorubicin], the IC50 in data set [1] (MCF7, read-out: IC50 of Doxorubicin (nM) in the presence of 200 μM tempamine, MCF-7) amounted to 55 ± 4.1 nM; in data set [1] (MCF7, MCF-7, read-out: IC50 of Doxorubicin (nM) in the presence of 0 μM tempamine), 487 ± 32 nM; in data set [1] (MCF7, MCF-7, read-out: IC50 of Doxorubicin (nM) in the presence of 50 μM tempamine), 475 ± 38 nM; in data set [1] (MCF7, MCF-7, read-out: IC50 of Doxorubicin (nM) in the presence of 100 μM tempamine), 67 ± 5.8 nM; in data set [2] (read-out: IC50 of Doxorubicin (nM) in the presence of 200 μM tempamine), 18 ± 1.1 nM; in data set [2] (read-out: IC50 of Doxorubicin (nM) in the presence of 0 μM tempamine), 60 ± 4 nM. Also, in data set [2] (read-out: IC50 of Doxorubicin (nM) in the presence of 100 μM tempamine), the IC50 was found to be 27 ± 1.7 nM. In addition, the “change of IC50 value of doxorubicin” value in data set [1] (MCF-7, in the presence of 100 μM TMN) is “decreased by one order of magnitude”. In data set [2] (addition of 100-200 μM tempamine), the “observed IC50 of doxorubicin decreased to” value was 50%.
Turning to `CC1(C)CCCC(C)(C)N1[O]` [TEMPO], in data set [3], the “affinity to n-octanol versus aqueous phase” value is reported as “much higher affinity to n-octanol than to the aqueous phase”.
For the compound `CC1(C)CC(O)CC(C)(C)N1[O]` [tempol], in data set [1] (MCF7, 72 h, read-out: IC50 (cell growth inhibition)), the IC50 amounted to 320000 nM. Further, the “affinity to n-octanol versus aqueous phase” value in data set [3] is given as “much higher affinity to n-octanol than to the aqueous phase”.
